Results: PubChem BioAssay (NCI)
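GI50 marks 50% less growth. TGI is the concentration that stops growth completely.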

What was measured:
Assay in all cases: NCI anticancer screen, dose series, 384-well format
[1] = test system: LOX IMVI melanoma
[2] = test system: NCI/ADR-RES ovarian
[3] = test system: TK-10 renal
[4] = test system: UO-31 renal
[5] = test system: HOP-62 NSCLC
[6] = test system: CCRF-CEM leukemia
[7] = test system: NCI-H23 lung
[8] = test system: HS 578T breast
[9] = test system: M14 melanoma
[10] = test system: OVCAR-3 ovarian
[11] = test system: EKVX NSCLC
[12] = test system: CAKI-1 renal
[13] = test system: NCI-H322M lung

**Q.** How did the GI50 [1] turn out when C/C=C1\NC(=O)[C@H]2CSSCCC=C[C@H](CC(=O)N[C@H](C(C)C)C(=O)N2)OC(=O)[C@H](C(C)C)NC1=O was run?
**A.** Its GI50 is under 10 nM.

**Q.** And the TGI [1]?
**A.** Its TGI is under 10 nM.

**Q.** And the GI50 [2]?
**A.** The GI50 was 2850 nM.

**Q.** And the TGI [2]?
**A.** The TGI was 13800 nM.

**Q.** What about the GI50 [3] of the same compound?
**A.** Its GI50 is under 10 nM.

**Q.** What about the TGI [3] of the same compound?
**A.** The TGI was under 18.1 nM.

**Q.** What about the GI50 [4] of the same compound?
**A.** The GI50 was 43.6 nM.

**Q.** And the TGI [4]?
**A.** Its TGI is 159 nM.

**Q.** And the GI50 [5]?
**A.** Its GI50 is under 10 nM.

**Q.** And the TGI [5]?
**A.** The TGI was under 10 nM.

**Q.** What about the GI50 [6] of the same compound?
**A.** Its GI50 is under 10 nM.

**Q.** What about the TGI [6] of the same compound?
**A.** The TGI was under 10 nM.

**Q.** What about the GI50 [7] of the same compound?
**A.** The GI50 was under 10 nM.

**Q.** What about the TGI [7] of the same compound?
**A.** The TGI was under 10 nM.

**Q.** And the GI50 [8]?
**A.** Its GI50 is under 10 nM.

**Q.** What about the TGI [8] of the same compound?
**A.** The TGI was under 10 nM.

**Q.** And the GI50 [9]?
**A.** Its GI50 is under 10 nM.

**Q.** And the TGI [9]?
**A.** The TGI was under 10 nM.

**Q.** And the GI50 [10]?
**A.** Its GI50 is under 10 nM.

**Q.** And the TGI [10]?
**A.** The TGI was under 10 nM.

**Q.** What about the GI50 [11] of the same compound?
**A.** The GI50 was under 10 nM.

**Q.** What about the TGI [11] of the same compound?
**A.** Its TGI is 30.8 nM.

**Q.** What about the GI50 [12] of the same compound?
**A.** Its GI50 is under 10 nM.

**Q.** What about the TGI [12] of the same compound?
**A.** Its TGI is under 10 nM.

**Q.** And the GI50 [13]?
**A.** The GI50 was under 10 nM.

**Q.** And the TGI [13]?
**A.** Its TGI is under 10 nM.
